Assay results: patent US6841172B1, “Method for iron delivery to a patient by transfer from dialysate” (HemoCleanse, Inc., priority 1996, dated 2005)

Experiments:
red blood cells = test: Monitoring of hemolysis in experimental dialysis (plasma absorbance at 420 and 585 nm); set-up: species or system bovine; conditions: compared with similar experiments without iron in the dialysate
Excerpt: To determine whether the method of Example 1 would cause hemolysis (lysis of red blood cells with the liberation of hemoglobin), absorbance data at 420 and 585 nm was collected for the plasma at various stages of the experiment described in Example 1.

[1] = Transfer of ferrous gluconate from dialysate into blood by hemodialysis through a PAN membrane dialyzer; assay type: in vitro ADME, bovine
Experimental: A two liter volume of bovine blood (hematocrit adjusted from 49 to 40 with saline) which had been stored with heparin anticoagulation for 24 hours was dialyzed using a PAN membrane dialyzer. The volume was maintained at 2 liters throughout the experiment by adding saline.
A sample of the blood was taken prior to dialysis of the blood and tested for iron content. The iron content of the pre-dialysis blood was 110 μg/dl and the transferrin iron binding capacity was 234 μg/dl. Dialysis was then started using the following equipment and conditions:
The circuit was primed with dialysate, prepared as described above, pumps were adjusted for proper flow, and then the blood side was drained of dialysate by pulling the Blood In tube out of the dialysis bath and allowing air to fill this side.
Assays were performed to determine plasma iron concentrations at 0, 5, 10, 20 and 30 minutes. […] This transfer indicates an avidity of plasma for the iron complex, even higher than the iron binding capacity of transferrin.

Substance: ferrous gluconate
- level of hemolysis during dialysis (red blood cells): not higher than that of similar experiments conducted without iron in the dialysate
- plasma iron level ([1]; after 30 minutes of dialysis, dialysate iron 125 μg/dl, pre-dialysis blood iron 110 μg/dl, transferrin iron binding capacity 234 μg/dl): ~500 µg/dL
- percent saturation of transferrin ([1]; after only a few minutes of hemodialysis, dialysate iron 125 μg/dl): 100%
- iron transferred per dialysis treatment ([1]; dialysate ferrous gluconate increased to 4 mg/dl): 15 mg
- iron transferred to the plasma ([1]; if the initial rate of iron transfer is continued for 180 minutes, dialysate 1 mg/dl ferrous gluconate): approximately 4 mg
